Results as given in US4027024A (priority 1972, dated 1977).

Assays:
rats [1] = conditions: rat, in vivo; for analgesic effect of the component per se (in words): sc
rats [2] = assay: hot plate test on rats, analgesic effect (Tables 1 and 2); assay type: in vivo
Method: Examination of PROBON'S potentiating effect upon
azidomorphine and azidocodeine, carried out on rats, by
hot plate test, compared with Algopyrine. The compounds
were administered s.c. (subcutaneously).
Examination of the potentiating effect of a few
homopyrimidazole derivatives upon axidomorphine or
azidocodeine, carried out on rats, by Hot plate test, the
compounds were administered s.c.

rats [3] = conditions: rat, in vivo
rats [4] = assay: algolytic test, analgesia evaluated by pain score scale (Table A); assay type: in vivo; conditions: for Pain units: pretr. time 1 hour, alone
[5] = modified hot plate test, duration of effect; assay type: in vivo; conditions: azidocodeine alone

SMILES: CCOC(=O)c1cnc2n(c1=O)C(C)CCC2 (stereo not shown) [MZ-108, 3-carbethoxy-4-oxo-6-methyl-6,7,8,9-tetrahydro-homopyrimidazole]
- Analgesic effect, algolytic test (rats [1]): 31%
- Analgesic effect, Hot plate test (rats [2]; 200 mg/kg s.c., alone): 18%

SMILES: CCOC(=O)c1c[n+](C)c2n(c1=O)C(C)CCC2 (stereo not shown) [MZ-144, 1,6-dimethyl-3-carbethoxy-4-oxo-6,7,8,9-tetrahydro-homopyrimidazolium-methosulphate]
- Prolongation of narcotic period (rats [3]): 571%
- Pain units (rats [4]; MZ-144 300 mg/kg p.o.): 75 Pain units
- Analgesic effect, algolytic test (rats [1]): 59%
- analgesic effect of the component per se (in words) (rats [1]): ineffective
- Analgesic effect, Hot plate test (rats [2]; 50 mg/kg s.c., alone): 38%

SMILES: CCOC(=O)C1=CN(C)C2CCCC(C)N2C1=O (stereo not shown) [MZ-168, 1,6-dimethyl-3-carbethoxy-4-oxo-1,6,7,8,9,10-hexahydro-homopyrimidazole]
- Analgesic effect, Hot plate test (rats [2]; 50 mg/kg s.c., alone): 23%

SMILES: O=C(CCCN1CCC(O)(c2ccc(Cl)cc2)CC1)c1ccc(F)cc1 [haloperidol, reference compound]
- Prolongation of narcotic period (rats [3]): 255%

SMILES: COc1ccc2c3c1O[C@H]1[C@H](N=[N+]=[N-])CC[C@H]4[C@@H](C2)N(C)CC[C@@]341 [Azidocodeine]
- Pain units (rats [4]; Azidocodeine 30 mg/kg p.o.): 87 Pain units
- Pain units (rats [4]; Azidocodeine 45 mg/kg p.o.): 38 Pain units
- Pain units (rats [4]; Azidocodeine 60 mg/kg p.o.): 30 Pain units
- ED50 in the algolytic test (rats [4]; azidocodeine alone, from diagram plotted from Table A): 32 mg/kg
- Analgesic effect, Hot plate test (rats [2]; AK 0.250 mg/kg s.c., alone): 16%
- duration of the effect [5]: 2 to 2.5 h

SMILES: Cc1c(N(C)CS(=O)(=O)O)c(=O)n(-c2ccccc2)n1C [Algopyrin, 2,3-dimethyl-4-methylamino-1-phenyl-5-pyrazolon-N-methane-sulfonic acid, reference compound]
- Analgesic effect, Hot plate test (rats [2]; 150 mg/kg s.c., alone): 33%
- Analgesic effect, Hot plate test (rats [2]; 200 mg/kg s.c., alone): 49%
- Analgesic effect, Hot plate test (rats [2]; AP 150 mg/kg s.c., AM --, AK dose left blank): 29%
- analgesic potency relative to Probon (in words) (rats [2]; Hot plate test, rats, s.c.): equipotent with Probon
- effect on analgesic effect of azidomorphine or azidocodeine (in words) (rats [2]; Hot plate test, rats, s.c.): does not increase the analgesic effect

SMILES: CC1CCCc2n1c(=O)c(C(=O)[O-])c[n+]2C (stereo not shown) [MZ-211, 1,6-dimethyl-4-oxo-6,7,8,9-tetrahydro-homopyrimidazole-3-carboxylic acid]
- Analgesic effect, algolytic test (rats [1]): 15%
- Analgesic effect, Hot plate test (rats [2]; 50 mg/kg s.c., alone): 38%

SMILES: CN1CC[C@]23c4c5ccc(O)c4O[C@H]2[C@H](N=[N+]=[N-])CC[C@H]3[C@H]1C5 [Azidomorphine]
- analgesic effect of the component per se (in words) (rats [1]): ineffective
- Analgesic effect, Hot plate test (rats [2]; AM 0.015 mg/kg s.c., alone): 22%

SMILES: CCOC(=O)C1CN(C)C2CCCC(C)N2C1=O (stereo not shown) [MZ-170, 1,6-dimethyl-3-carbethoxy-4-oxo-1,2,3,6,7,8,9,10-octahydro-homopyrimidazole]
- Analgesic effect, Hot plate test (rats [2]; 300 mg/kg s.c., alone): 31%
